Test results as given in PubChem BioAssay (NCI).
Several values for one entry are separate records, joined by “and”; a condition that tells them apart may be missing. Equal values may be shown once.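 Where inhibition never reached the appropriate level, the endpoint shown equals the highest concentration tested. Otherwise, values were interpolated linearly from a five-concentration, 48-hour dose response in 96-well plates. GI50 is the concentration that inhibits growth by half. TGI denotes the concentration required for complete inhibition of growth.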

Columns and labels:
Test in all cases: NCI-60 cell line screen, 48 h
[1] = tested on: RXF-631 renal
[2] = tested on: HOP-18 NSCLC
[3] = tested on: PC-3 prostate
[4] = tested on: T-47D breast
[5] = tested on: MCF7 breast
[6] = tested on: MDA-MB-231 breast
[7] = tested on: MDA-N
[8] = tested on: MDA-MB-435
[9] = tested on: HS 578T breast
[10] = tested on: SN12K1 renal

Cc1cc2c(cc1C)[n+](=O)c(C(=O)CC(=O)C(=O)Nc1ccccc1C(C)C)c(C)n2[O-]
TGI [1]: > 100 µM

O=C(O)CCC1CCc2cccc(OCC(=O)O)c2C1=O (stereo not given)
TGI [2]: > 100 µM

O=C1C(=C([O-])c2ccccc2)C(=O)c2ccccc21.O=C1C(=C([O-])c2ccccc2)C(=O)c2ccccc21.[Co+2]
GI50 [2]: 54.4 µM | TGI [2]: > 100 µM

O=C(Cc1ccccc1)NN1C(=O)C(Cl)C1c1cccc([N+](=O)[O-])c1 (stereo not given)
TGI [2]: > 100 µM

CCC1c2cc3n(c(=O)c2COC1O)Cc1c-3nc2ccccc2c1Cl (stereo not given)
TGI [2]: > 100 µM

NC(=S)N/N=C(\CCC(=O)Nc1ccccc1[N+](=O)[O-])CC(=O)c1ccco1
TGI [1]: > 100 µM | TGI [2]: > 100 µM

Cc1ccc(NC(=O)/C(=N\NC(N)=S)C(C#N)c2ccccc2C)cc1C (stereo not given)
TGI [1]: > 100 µM | TGI [2]: > 100 µM

O=C(N/C=C/C=C/Sc1ccccc1)OCc1ccccc1
TGI [1]: 39.3 µM | TGI [2]: 65 µM

N#CC(/C(=N/NC(N)=S)C(=O)Nc1cccc(Cl)c1)c1ccccc1 (stereo not given)
TGI [1]: > 100 µM | TGI [2]: > 100 µM

C/C(=N/NC(=S)N1CC2CCC(CC2)C1)c1cnccn1
TGI [3]: 8.46 µM | TGI [4]: 13.3 µM | TGI [5]: 12.1 µM | TGI [6]: 16.8 µM | TGI [7]: 28.7 µM | TGI [8]: 16.4 µM | TGI [9]: 11.4 µM

O=c1nc(N2CCCC2)nc(N2CCCC2)s1
TGI [1]: > 100 µM | TGI [2]: > 100 µM

C=C1C(=O)OC2CC1C(OC(C)=O)C/C(C)=C/CC/C(C)=C\CCC2(C)O (stereo not given)
GI50 [3]: 6.08 µM and 19.9 µM | TGI [3]: 19.6 µM and > 100 µM | TGI [4]: 14.6 µM and 62.7 µM | TGI [5]: 16.2 µM and 26.3 µM | TGI [6]: 22.5 µM and 22.2 µM | TGI [7]: 15.9 µM and 12.3 µM | TGI [8]: 18.6 µM | TGI [9]: 25.1 µM and 26.2 µM

COc1ccc2[nH]c3c4c(cc(-c5ccccc5)c3c2c1)C(=O)N(c1ccccc1)C4=O
TGI [2]: > 100 µM

C=C(COC(C)=O)CC(/C=C(\C)CC/C=C(\C)CO)OC(C)=O (stereo not given)
TGI [1]: > 100 µM

C#CCn1c(=O)c2cccnc2n(CC#C)c1=O
TGI [2]: > 100 µM

COc1ccccc1NC(=O)C(=O)Cc1cnc2ccccc2n1
TGI [3]: > 100 µM | TGI [4]: > 100 µM | TGI [5]: > 100 µM | TGI [6]: > 100 µM | TGI [7]: > 100 µM | TGI [8]: > 100 µM | TGI [9]: > 100 µM

CN(C)CC1CCCCCCCCCCCCC(CN(C)C)C1=O (stereo not given)
TGI [2]: 30.1 µM

O=C(O)c1ccc(C(=O)O)c(C(=O)O)c1.[NH-]C1CCCCC1[NH-].[Pt+2]
GI50 [3]: 4.94 µM | TGI [3]: 59.5 µM | GI50 [10]: 2.71 µM | TGI [10]: 19 µM | GI50 [4]: 6.58 µM | TGI [4]: 67.2 µM | GI50 [5]: 2.3 µM | TGI [5]: 31.9 µM | GI50 [6]: 16.7 µM | TGI [6]: > 73.6 µM | GI50 [7]: 1.15 µM | TGI [7]: 24.7 µM | GI50 [8]: 3.83 µM | TGI [8]: 30.4 µM | GI50 [2]: 11.8 µM | TGI [2]: 84.6 µM | GI50 [9]: 13.5 µM | TGI [9]: 84.5 µM

CC(=O)OCC1OC([Se-])C(OC(C)=O)C(OC(C)=O)C1OC(C)=O.N#CCC[PH+](CCC#N)CCC#N.[Au+] (stereo not given)
GI50 [1]: 16 µM | TGI [1]: > 100 µM | GI50 [2]: 12.6 µM | TGI [2]: 46.9 µM

C=C1C(=O)c2cc3c(cc2C(c2cc(OC)c(OC)c(OC)c2)[C@@H]1C(=O)O)OCO3 (stereo not given in full)
TGI [2]: > 100 µM

CCCCN(CCCC)CC(C(=O)Nc1ccc([N+](=O)[O-])cc1[N+](=O)[O-])/C(C)=N\NC(=O)C[N+](C)(C)C (stereo not given)
TGI [1]: > 100 µM | TGI [2]: > 100 µM

OCCCc1cnco1
TGI [2]: > 100 µM

O=C([O-])CCc1ccccc1.O=C([O-])CCc1ccccc1.O=C([O-])CCc1ccccc1.O=C([O-])CCc1ccccc1.[Mo+2].[Mo+2]
GI50 [2]: > 100 µM | TGI [2]: > 100 µM

N#Cc1c(-c2ccccc2)cc(-c2cccs2)c(C#N)c1N
TGI [2]: 0.0879 µM

CS(=N)(=O)CCC(N)P(=O)(O)O (stereo not given)
TGI [3]: > 100 µM | TGI [4]: > 100 µM | TGI [5]: > 100 µM | TGI [6]: > 100 µM | TGI [7]: > 100 µM | TGI [8]: > 100 µM | TGI [9]: > 100 µM

NC1=NC2=C(CCCC2)C(c2cccs2)S1 (stereo not given)
TGI [2]: > 100 µM

CC(=O)CC(=O)NC=O
TGI [1]: > 100 µM | TGI [2]: > 100 µM

CN(C)c1ccc(/C=c2\sc3nnc(-c4cccnc4)n3c2=O)cc1
TGI [2]: > 100 µM

CCOC(=O)/C(=C/c1ccccc1Br)P(=O)(OCC)OCC
TGI [1]: 8.45 µM | TGI [2]: 10.7 µM

CC(C)(CN1CCCCC1)C(=O)CC(SCCN)c1ccc(Cl)cc1 (stereo not given)
TGI [1]: 14.3 µM

CC(=O)Oc1c(Br)ccc2cc(C(Br)Br)c(C(=O)c3ccccc3)nc12
TGI [1]: 47.6 µM | TGI [2]: 31.2 µM

O=[N+]([O-])c1ccc(/C(Cl)=C/c2ccc(/C=C(\Cl)c3ccc([N+](=O)[O-])cc3[N+](=O)[O-])cc2)c([N+](=O)[O-])c1
TGI [1]: > 100 µM

CC(=O)SC(SC(C)=O)SC(C)=O
TGI [1]: > 100 µM | TGI [2]: > 100 µM

C=C1c2[nH]c3ccccc3c2CC(C(=O)O)N1C(O)c1ccc(S(=O)(=O)O)cc1 (stereo not given)
TGI [1]: > 100 µM

NS(=O)(=O)c1ccc(N=C2C(=O)Nc3ccccc32)cc1
TGI [3]: > 100 µM | TGI [4]: > 100 µM | TGI [5]: > 100 µM | TGI [6]: > 100 µM | TGI [7]: > 100 µM | TGI [8]: 72.7 µM | TGI [9]: > 100 µM

Fc1ccc(C2SCc3nc4ccccc4n32)cc1F (stereo not given)
TGI [1]: > 100 µM | TGI [2]: > 100 µM
